# Reference: PubChem BioAssay (NCI)
#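 Interpolation was linear, between the two tested concentrations surrounding the appropriate level; five concentrations were tested over 48 hours in 96-well plates. TGI is the concentration that stops growth completely.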
# Experiments:
# Test in all cases: DTP human tumour cell line panel, 48 h
# 786-0 renal = system: 786-0 renal
# A498 renal = system: A498 renal
# A549 NSCLC = system: A549 NSCLC
# ACHN renal = system: ACHN renal
# CAKI-1 renal = system: CAKI-1 renal
# CCRF-CEM leukemia = system: CCRF-CEM leukemia
# COLO 205 colon = system: COLO 205 colon
# DLD-1 colon = system: DLD-1 colon
# DMS 114 small cell lung = system: DMS 114 small cell lung
# DMS 273 small cell lung = system: DMS 273 small cell lung
# HCC-2998 colon = system: HCC-2998 colon
# HCT-116 colon = system: HCT-116 colon
# HCT-15 colon = system: HCT-15 colon
# HL-60(TB) leukemia = system: HL-60(TB) leukemia
# HOP-18 NSCLC = system: HOP-18 NSCLC
# HOP-62 NSCLC = system: HOP-62 NSCLC
# HOP-92 NSCLC = system: HOP-92 NSCLC
# HT29 colon = system: HT29 colon
# IGROV1 ovarian = system: IGROV1 ovarian
# K-562 leukemia = system: K-562 leukemia
# KM12 colon = system: KM12 colon
# KM20L2 colon = system: KM20L2 colon
# LOX IMVI melanoma = system: LOX IMVI melanoma
# LXFL 529 NSCLC = system: LXFL 529 NSCLC
# M14 melanoma = system: M14 melanoma
# M19-MEL melanoma = system: M19-MEL melanoma
# MALME-3M melanoma = system: MALME-3M melanoma
# NCI-H23 lung = system: NCI-H23 lung
# NCI-H460 lung = system: NCI-H460 lung
# NCI-H522 lung = system: NCI-H522 lung
# OVCAR-3 ovarian = system: OVCAR-3 ovarian
# OVCAR-5 ovarian = system: OVCAR-5 ovarian
# OVCAR-8 ovarian = system: OVCAR-8 ovarian
# RPMI-8226 leukemia = system: RPMI-8226 leukemia
# SF-268 CNS = system: SF-268 CNS
# SF-295 CNS = system: SF-295 CNS
# SF-539 CNS = system: SF-539 CNS
# SK-MEL-2 melanoma = system: SK-MEL-2 melanoma
# SK-MEL-28 melanoma = system: SK-MEL-28 melanoma
# SK-MEL-5 melanoma = system: SK-MEL-5 melanoma
# SK-OV-3 ovarian = system: SK-OV-3 ovarian
# SN12C renal = system: SN12C renal
# SNB-19 CNS = system: SNB-19 CNS
# SNB-75 CNS = system: SNB-75 CNS
# SNB-78 CNS = system: SNB-78 CNS
# SR leukemia = system: SR leukemia
# SW-620 colon = system: SW-620 colon
# TK-10 renal = system: TK-10 renal
# U251 CNS = system: U251 CNS
# UACC-257 melanoma = system: UACC-257 melanoma
# UACC-62 melanoma = system: UACC-62 melanoma
# UO-31 renal = system: UO-31 renal
# EKVX NSCLC = system: EKVX NSCLC
# MOLT-4 leukemia = system: MOLT-4 leukemia
# NCI-H226 lung = system: NCI-H226 lung
# OVCAR-4 ovarian = system: OVCAR-4 ovarian
# RXF 393 renal = system: RXF 393 renal
smiles,measurement,setting,value
Nc1nc(Cl)c2ncn(CCCC(c3ccccc3)P(=O)(O)O)c2n1 (configuration not stated),TGI,786-0 renal,> 100 µM
same,TGI,A498 renal,> 100 µM
same,TGI,A549 NSCLC,> 100 µM
same,TGI,ACHN renal,> 100 µM
same,TGI,CAKI-1 renal,> 100 µM
same,TGI,CCRF-CEM leukemia,> 100 µM
same,TGI,COLO 205 colon,> 100 µM
same,TGI,DLD-1 colon,> 100 µM
same,TGI,DMS 114 small cell lung,> 100 µM
same,TGI,DMS 273 small cell lung,> 100 µM
same,TGI,HCC-2998 colon,> 100 µM
same,TGI,HCT-116 colon,> 100 µM
same,TGI,HCT-15 colon,> 100 µM
same,TGI,HL-60(TB) leukemia,> 100 µM
same,TGI,HOP-18 NSCLC,> 100 µM
same,TGI,HOP-62 NSCLC,> 100 µM
same,TGI,HOP-92 NSCLC,> 100 µM
same,TGI,HT29 colon,> 100 µM
same,TGI,IGROV1 ovarian,> 100 µM
same,TGI,K-562 leukemia,> 100 µM
same,TGI,KM12 colon,> 100 µM
same,TGI,KM20L2 colon,> 100 µM
same,TGI,LOX IMVI melanoma,> 100 µM
same,TGI,LXFL 529 NSCLC,> 100 µM
same,TGI,M14 melanoma,> 100 µM
same,TGI,M19-MEL melanoma,> 100 µM
same,TGI,MALME-3M melanoma,> 100 µM
same,TGI,NCI-H23 lung,> 100 µM
same,TGI,NCI-H460 lung,> 100 µM
same,TGI,NCI-H522 lung,> 100 µM
same,TGI,OVCAR-3 ovarian,> 100 µM
same,TGI,OVCAR-5 ovarian,> 100 µM
same,TGI,OVCAR-8 ovarian,> 100 µM
same,TGI,RPMI-8226 leukemia,> 100 µM
same,TGI,SF-268 CNS,> 100 µM
same,TGI,SF-295 CNS,> 100 µM
same,TGI,SF-539 CNS,> 100 µM
same,TGI,SK-MEL-2 melanoma,> 100 µM
same,TGI,SK-MEL-28 melanoma,> 100 µM
same,TGI,SK-MEL-5 melanoma,> 100 µM
same,TGI,SK-OV-3 ovarian,> 100 µM
same,TGI,SN12C renal,> 100 µM
same,TGI,SNB-19 CNS,> 100 µM
same,TGI,SNB-75 CNS,> 100 µM
same,TGI,SNB-78 CNS,> 100 µM
same,TGI,SR leukemia,> 100 µM
same,TGI,SW-620 colon,> 100 µM
same,TGI,TK-10 renal,> 100 µM
same,TGI,U251 CNS,> 100 µM
same,TGI,UACC-257 melanoma,> 100 µM
same,TGI,UACC-62 melanoma,> 100 µM
same,TGI,UO-31 renal,> 100 µM
COc1ccc(/C=C/C(=O)c2c(-c3ccccc3)nn(C)c(=O)c2N2CC2C)cc1 (configuration not stated),TGI,786-0 renal,> 100 µM
same,TGI,A498 renal,80.7 µM
same,TGI,A549 NSCLC,> 100 µM
same,TGI,ACHN renal,> 100 µM
same,TGI,CAKI-1 renal,> 100 µM
same,TGI,CCRF-CEM leukemia,73.9 µM
same,TGI,COLO 205 colon,89.2 µM
same,TGI,DLD-1 colon,> 100 µM
same,TGI,DMS 114 small cell lung,90.6 µM
same,TGI,DMS 273 small cell lung,68.5 µM
same,TGI,EKVX NSCLC,94.3 µM
same,TGI,HCC-2998 colon,66.6 µM
same,TGI,HCT-116 colon,> 100 µM
same,TGI,HCT-15 colon,80.5 µM
same,TGI,HL-60(TB) leukemia,60.2 µM
same,TGI,HOP-18 NSCLC,> 100 µM
same,TGI,HOP-62 NSCLC,> 100 µM
same,TGI,HOP-92 NSCLC,> 100 µM
same,TGI,HT29 colon,> 100 µM
same,TGI,IGROV1 ovarian,> 100 µM
same,TGI,K-562 leukemia,> 100 µM
same,TGI,KM12 colon,> 100 µM
same,TGI,KM20L2 colon,80 µM
same,TGI,LOX IMVI melanoma,34 µM
same,TGI,LXFL 529 NSCLC,93.2 µM
same,TGI,M14 melanoma,> 100 µM
same,TGI,M19-MEL melanoma,> 100 µM
same,TGI,MALME-3M melanoma,> 100 µM
same,TGI,MOLT-4 leukemia,> 100 µM
same,TGI,NCI-H226 lung,> 100 µM
same,TGI,NCI-H23 lung,50.7 µM
same,TGI,NCI-H460 lung,65.5 µM
same,TGI,NCI-H522 lung,67.1 µM
same,TGI,OVCAR-3 ovarian,67.7 µM
same,TGI,OVCAR-4 ovarian,84 µM
same,TGI,OVCAR-5 ovarian,> 100 µM
same,TGI,OVCAR-8 ovarian,> 100 µM
same,TGI,RXF 393 renal,93.6 µM
same,TGI,SF-268 CNS,> 100 µM
same,TGI,SF-295 CNS,> 100 µM
same,TGI,SF-539 CNS,> 100 µM
same,TGI,SK-MEL-2 melanoma,47.6 µM
same,TGI,SK-MEL-28 melanoma,> 100 µM
same,TGI,SK-MEL-5 melanoma,> 100 µM
same,TGI,SK-OV-3 ovarian,71.3 µM
same,TGI,SN12C renal,> 100 µM
same,TGI,SNB-19 CNS,> 100 µM
same,TGI,SNB-75 CNS,73.9 µM
same,TGI,SNB-78 CNS,63.1 µM
same,TGI,SW-620 colon,88.2 µM
same,TGI,TK-10 renal,> 100 µM
same,TGI,U251 CNS,85.6 µM
same,TGI,UACC-257 melanoma,> 100 µM
same,TGI,UACC-62 melanoma,71.2 µM
same,TGI,UO-31 renal,> 100 µM
